According to PubChem BioAssay (NCI):
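The compound was tested at five concentrations on cells cultured in 96-well plates, with a 48-hour exposure period. TGI denotes the concentration required for complete inhibition of growth.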

Legend:
Test in all cases: NCI anticancer screen, dose series, 48 h
MDA-N = tested on: MDA-N
SW-620 colon = tested on: SW-620 colon
MCF7 breast = tested on: MCF7 breast
TK-10 renal = tested on: TK-10 renal
HCT-116 colon = tested on: HCT-116 colon
UO-31 renal = tested on: UO-31 renal
SNB-19 CNS = tested on: SNB-19 CNS
BT-549 breast = tested on: BT-549 breast
MDA-MB-435 = tested on: MDA-MB-435
SF-295 CNS = tested on: SF-295 CNS
SK-MEL-28 melanoma = tested on: SK-MEL-28 melanoma
OVCAR-4 ovarian = tested on: OVCAR-4 ovarian
ACHN renal = tested on: ACHN renal
OVCAR-5 ovarian = tested on: OVCAR-5 ovarian
HS 578T breast = tested on: HS 578T breast
PC-3 prostate = tested on: PC-3 prostate
SF-539 CNS = tested on: SF-539 CNS
OVCAR-3 ovarian = tested on: OVCAR-3 ovarian
NCI-H23 lung = tested on: NCI-H23 lung
SN12C renal = tested on: SN12C renal
RPMI-8226 leukemia = tested on: RPMI-8226 leukemia
SF-268 CNS = tested on: SF-268 CNS
IGROV1 ovarian = tested on: IGROV1 ovarian
UACC-62 melanoma = tested on: UACC-62 melanoma
OVCAR-8 ovarian = tested on: OVCAR-8 ovarian
SR leukemia = tested on: SR leukemia
HOP-62 NSCLC = tested on: HOP-62 NSCLC
U251 CNS = tested on: U251 CNS
HCC-2998 colon = tested on: HCC-2998 colon
MALME-3M melanoma = tested on: MALME-3M melanoma
NCI-H460 lung = tested on: NCI-H460 lung
HCT-15 colon = tested on: HCT-15 colon
COLO 205 colon = tested on: COLO 205 colon
SK-OV-3 ovarian = tested on: SK-OV-3 ovarian
UACC-257 melanoma = tested on: UACC-257 melanoma
786-0 renal = tested on: 786-0 renal
SNB-75 CNS = tested on: SNB-75 CNS
A498 renal = tested on: A498 renal
HT29 colon = tested on: HT29 colon
M14 melanoma = tested on: M14 melanoma
KM12 colon = tested on: KM12 colon
RXF 393 renal = tested on: RXF 393 renal
EKVX NSCLC = tested on: EKVX NSCLC
CAKI-1 renal = tested on: CAKI-1 renal
DU-145 prostate = tested on: DU-145 prostate
A549 NSCLC = tested on: A549 NSCLC
MOLT-4 leukemia = tested on: MOLT-4 leukemia
NCI-H522 lung = tested on: NCI-H522 lung
SK-MEL-5 melanoma = tested on: SK-MEL-5 melanoma
HOP-92 NSCLC = tested on: HOP-92 NSCLC
MDA-MB-231 breast = tested on: MDA-MB-231 breast
LOX IMVI melanoma = tested on: LOX IMVI melanoma
CCRF-CEM leukemia = tested on: CCRF-CEM leukemia
K-562 leukemia = tested on: K-562 leukemia
SK-MEL-2 melanoma = tested on: SK-MEL-2 melanoma
NCI-H226 lung = tested on: NCI-H226 lung
HL-60(TB) leukemia = tested on: HL-60(TB) leukemia
NCI/ADR-RES ovarian = tested on: NCI/ADR-RES ovarian

COC(C)(C)C1=CCC(C)CC1 (configuration not stated)
TGI (MDA-N): > 100 µM | TGI (SW-620 colon): > 100 µM | TGI (MCF7 breast): > 100 µM | TGI (TK-10 renal): > 100 µM | TGI (HCT-116 colon): > 100 µM | TGI (UO-31 renal): > 100 µM | TGI (SNB-19 CNS): > 100 µM | TGI (BT-549 breast): > 100 µM | TGI (MDA-MB-435): > 100 µM | TGI (SF-295 CNS): > 100 µM | TGI (SK-MEL-28 melanoma): > 100 µM | TGI (OVCAR-4 ovarian): > 100 µM | TGI (ACHN renal): > 100 µM | TGI (OVCAR-5 ovarian): > 100 µM | TGI (HS 578T breast): > 100 µM | TGI (PC-3 prostate): > 100 µM | TGI (SF-539 CNS): > 100 µM | TGI (OVCAR-3 ovarian): > 100 µM | TGI (NCI-H23 lung): > 100 µM | TGI (SN12C renal): > 100 µM | TGI (RPMI-8226 leukemia): > 100 µM | TGI (SF-268 CNS): > 100 µM | TGI (IGROV1 ovarian): > 100 µM | TGI (UACC-62 melanoma): > 100 µM | TGI (OVCAR-8 ovarian): > 100 µM | TGI (SR leukemia): 78 µM | TGI (HOP-62 NSCLC): > 100 µM | TGI (U251 CNS): > 100 µM | TGI (HCC-2998 colon): > 100 µM | TGI (MALME-3M melanoma): > 100 µM | TGI (NCI-H460 lung): > 100 µM | TGI (HCT-15 colon): > 100 µM | TGI (COLO 205 colon): > 100 µM | TGI (SK-OV-3 ovarian): > 100 µM | TGI (UACC-257 melanoma): > 100 µM | TGI (786-0 renal): > 100 µM | TGI (SNB-75 CNS): > 100 µM | TGI (A498 renal): > 100 µM | TGI (HT29 colon): > 100 µM | TGI (M14 melanoma): > 100 µM | TGI (KM12 colon): > 100 µM | TGI (RXF 393 renal): > 100 µM | TGI (EKVX NSCLC): > 100 µM | TGI (CAKI-1 renal): > 100 µM | TGI (DU-145 prostate): > 100 µM | TGI (A549 NSCLC): > 100 µM | TGI (MOLT-4 leukemia): > 100 µM | TGI (NCI-H522 lung): > 100 µM | TGI (SK-MEL-5 melanoma): > 100 µM | TGI (HOP-92 NSCLC): > 100 µM

CC[N+](CC)(CCNCC(N)=O)CC(N)=O
TGI (MDA-N): > 10 µM | TGI (SW-620 colon): > 10 µM | TGI (MCF7 breast): > 10 µM | TGI (TK-10 renal): > 10 µM | TGI (MDA-MB-231 breast): > 10 µM | TGI (HCT-116 colon): > 10 µM | TGI (UO-31 renal): > 10 µM | TGI (SNB-19 CNS): > 10 µM | TGI (BT-549 breast): > 10 µM | TGI (MDA-MB-435): > 10 µM | TGI (SF-295 CNS): > 10 µM | TGI (SK-MEL-28 melanoma): > 10 µM | TGI (OVCAR-4 ovarian): > 10 µM | TGI (ACHN renal): > 10 µM | TGI (OVCAR-5 ovarian): > 10 µM | TGI (HS 578T breast): > 10 µM | TGI (PC-3 prostate): > 10 µM | TGI (SF-539 CNS): > 10 µM | TGI (OVCAR-3 ovarian): > 10 µM | TGI (NCI-H23 lung): > 10 µM | TGI (SN12C renal): > 10 µM | TGI (RPMI-8226 leukemia): > 10 µM | TGI (LOX IMVI melanoma): > 10 µM | TGI (SF-268 CNS): > 10 µM | TGI (IGROV1 ovarian): > 10 µM | TGI (UACC-62 melanoma): > 10 µM | TGI (OVCAR-8 ovarian): > 10 µM | TGI (HOP-62 NSCLC): > 10 µM | TGI (U251 CNS): > 10 µM | TGI (HCC-2998 colon): > 10 µM | TGI (MALME-3M melanoma): > 10 µM | TGI (NCI-H460 lung): > 10 µM | TGI (HCT-15 colon): > 10 µM | TGI (CCRF-CEM leukemia): > 10 µM | TGI (COLO 205 colon): > 10 µM | TGI (SK-OV-3 ovarian): > 10 µM | TGI (UACC-257 melanoma): > 10 µM | TGI (786-0 renal): > 10 µM | TGI (SNB-75 CNS): > 10 µM | TGI (A498 renal): > 10 µM | TGI (K-562 leukemia): > 10 µM | TGI (HT29 colon): > 10 µM | TGI (M14 melanoma): > 10 µM | TGI (KM12 colon): > 10 µM | TGI (SK-MEL-2 melanoma): > 10 µM | TGI (RXF 393 renal): > 10 µM | TGI (NCI-H226 lung): > 10 µM | TGI (EKVX NSCLC): > 10 µM | TGI (HL-60(TB) leukemia): > 10 µM | TGI (CAKI-1 renal): > 10 µM | TGI (DU-145 prostate): > 10 µM | TGI (NCI/ADR-RES ovarian): > 10 µM | TGI (A549 NSCLC): > 10 µM | TGI (MOLT-4 leukemia): > 10 µM | TGI (NCI-H522 lung): > 10 µM | TGI (SK-MEL-5 melanoma): > 10 µM | TGI (HOP-92 NSCLC): > 10 µM
